Data as given in PubChem BioAssay AID248 (DTP/NCI, 2004).
Where “and” joins values, the source holds several entries; their conditions need not be identical. Equal values may be shown once. Toxic doses and inconclusive results are not listed. No stated cut-off is given here; in the data, active means T/C of 150% or more; inactive means T/C below 125%.

Test system: L1210 leukemia ip in BDF1 mice, survival T/C
Test: NCI In Vivo Anticancer Drug Screen. Data for tumor model L1210 Leukemia (intraperitoneal) in B6D2F1 (BDF1) mice
Conditions: endpoint: mean survival time, higher = longer survival
Outline: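 Transplanted-tumor mice were given test agent; controls received vehicle only. Survival readings from the two groups were divided (treated over control).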

[1] = dose: 100.0 mg/kg/injection, schedule: Q04DX003 (ip), vehicle: Klucel (hydroxypropylcellulose) (HPC)
[2] = dose: 200.0 mg/kg/injection, schedule: Q04DX003 (ip), vehicle: Klucel (hydroxypropylcellulose) (HPC)
[3] = dose: 400.0 mg/kg/injection, schedule: Q01DX009 (ip), vehicle: Klucel (hydroxypropylcellulose) (HPC)
[4] = dose: 400.0 mg/kg/injection, schedule: Q04DX003 (ip), vehicle: Klucel (hydroxypropylcellulose) (HPC)
[5] = dose: 100.0 mg/kg/injection, schedule: Q01DX001 (ip), vehicle: carboxymethylcellulose (CMC)
[6] = dose: 200.0 mg/kg/injection, schedule: Q01DX001 (ip), vehicle: carboxymethylcellulose (CMC)
[7] = dose: 50.0 mg/kg/injection, schedule: Q01DX001 (ip), vehicle: saline
[8] = dose: 100.0 mg/kg/injection, schedule: Q01DX001 (ip), vehicle: saline
[9] = dose: 200.0 mg/kg/injection, schedule: Q01DX001 (ip), vehicle: saline
[10] = dose: 400.0 mg/kg/injection, schedule: Q01DX001 (ip), vehicle: saline
[11] = dose: 100.0 mg/kg/injection, schedule: Q04DX003 (ip), vehicle: saline
[12] = dose: 100.0 mg/kg/injection, schedule: Q04DX002 (ip), vehicle: Klucel (hydroxypropylcellulose) (HPC)
[13] = dose: 100.0 mg/kg/injection, schedule: Q04DX003 (ip), vehicle: saline with Tween-80
[14] = dose: 200.0 mg/kg/injection, schedule: Q04DX003 (ip), vehicle: saline with Tween-80
[15] = dose: 100.0 mg/kg/injection, schedule: Q01DX009 (ip), vehicle: saline
[16] = dose: 200.0 mg/kg/injection, schedule: Q01DX009 (ip), vehicle: saline
[17] = dose: 100.0 mg/kg/injection, schedule: Q01DX009 (ip), vehicle: saline with Tween-80
[18] = dose: 200.0 mg/kg/injection, schedule: Q01DX009 (ip), vehicle: saline with Tween-80
[19] = dose: 200.0 mg/kg/injection, schedule: Q04DX003 (ip), vehicle: saline
[20] = dose: 400.0 mg/kg/injection, schedule: Q04DX003 (ip), vehicle: saline

Measured: T/C

Cc1ccc(C)c(NC(=O)c2ccc(Cl)c(Cl)c2)c1
inactive: dose: 1.5 mg/kg/injection, schedule: Q01DX009 (ip), vehicle: Klucel (hydroxypropylcellulose) (HPC) 92 % of control | dose: 3.0 mg/kg/injection, schedule: Q01DX009 (ip), vehicle: Klucel (hydroxypropylcellulose) (HPC) 99 % of control | dose: 6.0 mg/kg/injection, schedule: Q01DX009 (ip), vehicle: Klucel (hydroxypropylcellulose) (HPC) 97 % of control | dose: 6.25 mg/kg/injection, schedule: Q01DX009 (ip), vehicle: Klucel (hydroxypropylcellulose) (HPC) 88 % of control | dose: 50.0 mg/kg/injection, schedule: Q01DX009 (ip), vehicle: Klucel (hydroxypropylcellulose) (HPC) 86 % of control | [1] 93 % of control | [2] 91 % of control | [3] 86 % of control | [4] 90 % of control

Cc1nn(C)c2c(N)ncnc12
inactive: dose: 75.0 mg/kg/injection, schedule: Q01DX001 (ip), vehicle: other 100 % of control | dose: 150.0 mg/kg/injection, schedule: Q01DX001 (ip), vehicle: other 102 % of control | dose: 300.0 mg/kg/injection, schedule: Q01DX001 (ip), vehicle: other 98 % of control

COc1cc(C2(O)C=C(C)C(=O)C=C2C)c(OC)cc1C (stereo not drawn)
inactive: dose: 50.0 mg/kg/injection, schedule: Q01DX001 (ip), vehicle: Klucel (hydroxypropylcellulose) (HPC) 92 % of control | dose: 100.0 mg/kg/injection, schedule: Q01DX001 (ip), vehicle: Klucel (hydroxypropylcellulose) (HPC) 87 % of control | dose: 200.0 mg/kg/injection, schedule: Q01DX001 (ip), vehicle: Klucel (hydroxypropylcellulose) (HPC) 86 % of control

O=C(/C(=C/c1cccc(Cl)c1)c1ccccc1)c1ccc(O)cc1
inactive: [5] 101 % of control | [6] 90 % of control

CC(C)(C)NC(=O)Nc1ccc2ccccc2c1
inactive: dose: 100.0 mg/kg/injection, schedule: Q01DX009 (ip), vehicle: other 93 % of control | dose: 200.0 mg/kg/injection, schedule: Q01DX009 (ip), vehicle: other 89 % of control | dose: 400.0 mg/kg/injection, schedule: Q01DX009 (ip), vehicle: other 94 % of control

Nc1nc(SCc2ccc([N+](=O)[O-])cc2)c2nc(SCc3ccc([N+](=O)[O-])cc3)n(C3OC(CO)C(O)C3O)c2n1 (stereo not drawn)
inactive: dose: 50.0 mg/kg/injection, schedule: Q01DX005 (ip), vehicle: saline 102 % of control | dose: 100.0 mg/kg/injection, schedule: Q01DX005 (ip), vehicle: saline 118 % of control | dose: 200.0 mg/kg/injection, schedule: Q01DX005 (ip), vehicle: saline 115 % of control

CC(=O)Nc1ccc(OC(C)(C)C)cc1
inactive: [7] 101 % of control | [8] 106 % of control | [9] 97 % of control | [10] 95 % of control

O=C1NC(=O)C(Cl)(c2ccccc2)C(=O)N1
inactive: dose: 25.0 mg/kg/injection, schedule: Q04DX003 (ip), vehicle: saline 99 % of control | dose: 50.0 mg/kg/injection, schedule: Q04DX003 (ip), vehicle: saline 87 % of control | [11] 96 % of control

O=S(=O)(c1ccccc1)N1C=CC=CC=C1
inactive: dose: 25.0 mg/kg/injection, schedule: Q04DX002 (ip), vehicle: Klucel (hydroxypropylcellulose) (HPC) 102 % of control | dose: 50.0 mg/kg/injection, schedule: Q04DX002 (ip), vehicle: Klucel (hydroxypropylcellulose) (HPC) 102 % of control | [12] 105 % of control

CC(=O)Cn1c(=O)oc2ccccc2c1=O
inactive: dose: 50.0 mg/kg/injection, schedule: Q04DX003 (ip), vehicle: saline with Tween-80 102 % of control | [13] 108 % of control | [14] 102 % of control

Clc1nc2ccccc2nc1Cl
inactive: dose: 12.5 mg/kg/injection, schedule: Q04DX003 (sc), vehicle: olive oil, sesame oil, peanut oil 98 % of control | dose: 25.0 mg/kg/injection, schedule: Q04DX003 (sc), vehicle: olive oil, sesame oil, peanut oil 109 % of control

CN(C)CCCNc1n[nH]c2cccc(Cl)c12
inactive: dose: 50.0 mg/kg/injection, schedule: Q01DX009 (ip), vehicle: saline 104 % of control | [15] 96 % of control | [16] 104 % of control

CCOCCOC(=O)c1ccc(C(N)=NC2CCCCC2)cc1
inactive: [8] 100 % of control | [9] 102 % of control | [10] 90 % of control

CCCCCC(=N\N=C(N)N)/C(C)=N/N=C(N)N
inactive: dose: 7.5 mg/kg/injection, schedule: Q01DX Z (ip), vehicle: saline 106 % of control | dose: 15.0 mg/kg/injection, schedule: Q01DX Z (ip), vehicle: saline 111 % of control | dose: 30.0 mg/kg/injection, schedule: Q01DX Z (ip), vehicle: saline 93 % of control

Cc1ccc(Cc2c(C=O)nc(N)[nH]c2=O)c2ccccc12
inactive: [12] 90 % of control | dose: 200.0 mg/kg/injection, schedule: Q04DX002 (ip), vehicle: Klucel (hydroxypropylcellulose) (HPC) 97 % of control

O=C1CCC(=O)N1CCc1csc2ccccc12
inactive: [5] 110 % of control | dose: 177.6 mg/kg/injection, schedule: Q01DX001 (ip), vehicle: carboxymethylcellulose (CMC) 95 % of control and 92 % of control | [6] 96 % of control | dose: 266.8 mg/kg/injection, schedule: Q01DX001 (ip), vehicle: carboxymethylcellulose (CMC) 93 % of control and 94 % of control | dose: 600.0 mg/kg/injection, schedule: Q01DX001 (ip), vehicle: carboxymethylcellulose (CMC) 101 % of control and 91 % of control

CCOC(=O)C12CC=CC(CCC1)C2=O (stereo not drawn) (tested in a mixture with another compound)
inactive: [17] 112 % of control | [13] 103 % of control | [18] 101 % of control | [14] 102 % of control | dose: 400.0 mg/kg/injection, schedule: Q01DX009 (ip), vehicle: saline with Tween-80 101 % of control | dose: 400.0 mg/kg/injection, schedule: Q04DX003 (ip), vehicle: saline with Tween-80 105 % of control

CC(=O)N(C)c1ccc(NC(=O)Nc2ccc(C)cc2[N+](=O)[O-])cc1
inactive: [1] 94 % of control | [2] 94 % of control | [4] 94 % of control

OC1C2C3CCC(CC3)C2C(C2OCCO2)C2C3CCC(C3)C12 (stereo not drawn)
inactive: dose: 50.0 mg/kg/injection, schedule: Q01DX009 (ip), vehicle: saline with Tween-80 96 % of control | [17] 96 % of control | [18] 89 % of control

O=C(N/N=C/c1ccc(Cl)cc1)C(O)c1ccccc1 (stereo not drawn)
inactive: dose: 100.0 mg/kg/injection, schedule: Q01DX009 (ip), vehicle: Klucel (hydroxypropylcellulose) (HPC) 87 % of control | dose: 200.0 mg/kg/injection, schedule: Q01DX009 (ip), vehicle: Klucel (hydroxypropylcellulose) (HPC) 87 % of control | [3] 89 % of control

O=[N+]([O-])c1cccc2cccc([N+](=O)[O-])c12
inactive: [15] 91 % of control | [11] 103 % of control | [16] 86 % of control | [19] 98 % of control | [20] 101 % of control

Clc1ccc(-c2nc3ccccc3cc2N2CCOCC2)cc1
inactive: [1] 108 % of control | [2] 103 % of control | [4] 100 % of control

Cc1ccc(O)cc1Cl
inactive: [15] 104 % of control | [11] 95 % of control | [16] 101 % of control | [19] 104 % of control | dose: 400.0 mg/kg/injection, schedule: Q01DX009 (ip), vehicle: saline 95 % of control | [20] 96 % of control

CCCCCCCCCCCCCCCCOc1ccc(S(=O)(=O)c2ccccc2)cc1[N+](=O)[O-]
inactive: [1] 91 % of control | [2] 94 % of control | dose: 400.0 mg/kg/injection, schedule: Q01DX009 (ip), vehicle: saline sonified 96 % of control | [4] 96 % of control

O=C(c1ccccc1)N(c1ccccc1)c1ccccc1
inactive: dose: 50.0 mg/kg/injection, schedule: Q01DX001 (ip), vehicle: carboxymethylcellulose (CMC) 107 % of control | [5] 101 % of control | [6] 107 % of control | dose: 400.0 mg/kg/injection, schedule: Q01DX001 (ip), vehicle: carboxymethylcellulose (CMC) 103 % of control

CC(C)(C#N)CCCCC(C)(C)C#N
inactive: [7] 105 % of control | [8] 108 % of control | [9] 102 % of control | [10] 100 % of control

CC(=O)C(C#N)C(C)=O.CC(=O)C(C#N)C(C)=O.[Mn]
inactive: [15] 107 % of control | [11] 105 % of control | [19] 102 % of control
